According to US4904585A, “Novel antibiotic NK84-0218 and process for the production of the same” (Nippon Kayaku Kabushiki Kaisha, priority 1984, dated 1990):
Values after ≈ are worked out from the molar mass of the structure shown.

Assays:
[1] = system: Staphylococcus aureus EDA 209P; assay: Antibacterial spectrum, agar plate dilution method; assay type: cell-based; settings: 0.5% peptone agar, read-out: Minimum inhibitory concentration
[2] = system: Bacillus subtilis PCI 219; assay: Antibacterial spectrum, agar plate dilution method; assay type: cell-based; settings: PCI219, 0.5% peptone agar, read-out: Minimum inhibitory concentration
[3] = system: Bacillus subtilis ATCC 6633; assay: Antibacterial spectrum, agar plate dilution method; assay type: cell-based; settings: ATCC6633, 0.5% peptone agar, read-out: Minimum inhibitory concentration
Bacillus cereus IAM 1072 = assay: Antibacterial spectrum, agar plate dilution method; assay type: cell-based; settings: IAM1072, 0.5% peptone agar, read-out: Minimum inhibitory concentration
[4] = system: Bacillus polymyxa IAM 1210; assay: Antibacterial spectrum, agar plate dilution method; assay type: cell-based; settings: Paenibacillus polymyxa, IAM1210, 0.5% peptone agar, read-out: Minimum inhibitory concentration
[5] = system: Bacillus megaterium ATCC 14945; assay: Antibacterial spectrum, agar plate dilution method; assay type: cell-based; settings: Priestia megaterium, ATCC14945, 0.5% peptone agar, read-out: Minimum inhibitory concentration
[6] = system: Bacillus licheniformis IFO 12107; assay: Antibacterial spectrum, agar plate dilution method; assay type: cell-based; settings: IFO12107, 0.5% peptone agar, read-out: Minimum inhibitory concentration
[7] = system: Micrococcus flavus ATCC 10240; assay: Antibacterial spectrum, agar plate dilution method; assay type: cell-based; settings: ATCC10240, 0.5% peptone agar, read-out: Minimum inhibitory concentration
[8] = system: Micrococcus luteus ATCC 9341; assay: Antibacterial spectrum, agar plate dilution method; assay type: cell-based; settings: ATCC9341, 0.5% peptone agar, read-out: Minimum inhibitory concentration
Escherichia coli NIHJ = assay: Antibacterial spectrum, agar plate dilution method; assay type: cell-based; settings: 0.5% peptone agar, read-out: Minimum inhibitory concentration
Escherichia coli K-12 = assay: Antibacterial spectrum, agar plate dilution method; assay type: cell-based; settings: K12, 0.5% peptone agar, read-out: Minimum inhibitory concentration
[9] = system: Klebsiella pneumoniae PCI 602; assay: Antibacterial spectrum, agar plate dilution method; assay type: cell-based; settings: PCI602, 0.5% peptone agar, read-out: Minimum inhibitory concentration
[10] = system: Proteus morganii IFO 3168; assay: Antibacterial spectrum, agar plate dilution method; assay type: cell-based; settings: Morganella morganii, IFO3168, 0.5% peptone agar, read-out: Minimum inhibitory concentration
[11] = system: Proteus vulgaris IFO 3045; assay: Antibacterial spectrum, agar plate dilution method; assay type: cell-based; settings: IFO3045, 0.5% peptone agar, read-out: Minimum inhibitory concentration
[12] = system: Proteus mirabilis IFO 3849; assay: Antibacterial spectrum, agar plate dilution method; assay type: cell-based; settings: IFO3849, 0.5% peptone agar, read-out: Minimum inhibitory concentration
[13] = system: Pseudomonas aernginosa IFO 3445; assay: Antibacterial spectrum, agar plate dilution method; assay type: cell-based; settings: IFO3445, 0.5% peptone agar, read-out: Minimum inhibitory concentration
[14] = system: Salmonella typhi 901 (MS-1); assay: Antibacterial spectrum, agar plate dilution method; assay type: cell-based; settings: Salmonella enterica, read-out: Minimum inhibitory concentration
[15] = system: Salmonella paratyphi 1015 (MS-1); assay: Antibacterial spectrum, agar plate dilution method; assay type: cell-based; settings: Salmonella enterica, read-out: Minimum inhibitory concentration
[16] = system: Salmonella enteritidis G14 (MS-1); assay: Antibacterial spectrum, agar plate dilution method; assay type: cell-based; settings: Salmonella enterica, 0.5% peptone agar, read-out: Minimum inhibitory concentration
[17] = system: Enterobacter aerogenes ATCC 13048 (MS-1); assay: Antibacterial spectrum, agar plate dilution method; assay type: cell-based; settings: Klebsiella aerogenes, ATCC13048, 0.5% peptone agar, read-out: Minimum inhibitory concentration
[18] = system: Serratia marcescens GM 6484; assay: Antibacterial spectrum, agar plate dilution method; assay type: cell-based; settings: GM6484, 0.5% peptone agar, read-out: Minimum inhibitory concentration
[19] = system: Candida albicans NIH 3147; assay: Antibacterial spectrum, agar plate dilution method; assay type: cell-based; settings: NIH3147, 0.5% peptone agar, read-out: Minimum inhibitory concentration
[20] = system: Mycobacterium smegmatis ATCC 607; assay: Antibacterial spectrum, agar plate dilution method; assay type: cell-based; settings: Mycolicibacterium smegmatis, ATCC607, 0.5% peptone agar, read-out: Minimum inhibitory concentration
gram-positive bacteria = assay: Antibacterial spectrum, summary in words; assay type: cell-based; settings: S. aureus FDA 209P, Bacillus including B. subtilis PCI 219 and B. cereus IAM 1072, Micrococcus flavus ATCC 10240
gram-negative bacteria = assay: Antibacterial spectrum, summary in words; assay type: cell-based; settings: agar plate dilution method
HeLa cell = assay: Anti-HeLa cell activity; assay type: cell-based; settings: for Cells/plate: 72 hours after the addition
Method: *The number of cells 72 hours after the addition of NK840218.

[21] = system: herpes simplex virus-I (HSV-I); assay: Antiviral activity, cytopathic effect of HSV-I on Vero cells; assay type: cell-based
Method: A medium containing a definite amount of NK84-0218 and herpes simplex virus-I (HSV-I) 5-10 TC ID50 are added onto a single layer of vero cells in a microplate having 96 wells and cultured in a 5% by volume carbon dioxide incubator at 37° C. for 96 to 120 hours. Then the antiviral activity of the test substance is determined by microscopically observing the cytopathic effect (CPE) of the HSV-I on the Vero cells. The inhibition is taken as effective when no CPE is observed in a well. For example, when CPE is observed in one well among ten at the same concentration, the inhibition ratio is 90%.

Acute toxicity on mice = assay type: in vivo
Solubility in solvents = assay type: physicochemical
Source text: In order to isolate the antibiotic of the present invention, the culturing broth is purified in a manner conventionally used in isolating a metabolite of a microorganism from its culturing broth. […] For example, the culturing broth is adjusted to a pH value of 3.5 to 6.5, preferably 4 to 4.5, adsorbed by powdery active carbon, washed with water and eluted with a 50% aqueous acetone and the active fraction thus obtained is concentrated and lyophilized to give a brown crude powder. Then this powder is dissolved in methanol and insoluble substances are removed. The soluble portion is dried, dissolved in water, adsorbed by an active carbon column, washed with water and subjected to acetone linear concentration gradient elution with water and 50% aqueous acetone. The obtained active fraction is concentrated and lyophilized. The pale brown powder containing NK84-0218 thus obtained is dissolved in a small amount of water and packed into an Avicel column. Then it is developed with an aqueous alcohol and eluted with increasing the water content stepwise. The active fractions thus obtained are combined, concentrated and lyophilized. Subsequently the obtained powder is dissolved in a small amount of water and packed into an SP Sephadex® C-25(Na^+) column previously equilibrated with 0.02M sodium chloride. The active fractions eluted with 0.02M sodium chloride are desalted on active carbon to give a colorless powder. The powder thus purified is treated with water or an aqueous alcohol to give NK84-0218 in the form of colorless needles. The titer during the cultivation is determined by plate cup assay with Bacillus subtilis PCI 219.

Nc1ncnc2c1ncn2C1OC(CO)C1CO (centres unmarked) [NK84-0218]
MIC [1]: < 0.1 µg/mL | MIC [2]: < 0.1 µg/mL | MIC [3]: < 0.1 µg/mL | MIC (Bacillus cereus IAM 1072): < 0.1 µg/mL | MIC [4]: < 0.1 µg/mL | MIC [5]: 1.56 µg/mL (≈ 6.21 µM) | MIC [6]: 6.25 µg/mL (≈ 24.9 µM) | MIC [7]: 6.25 µg/mL (≈ 24.9 µM) | MIC [8]: 3.12 µg/mL (≈ 12.4 µM) | MIC (Escherichia coli NIHJ): > 100 µg/mL | MIC (Escherichia coli K-12): > 100 µg/mL | MIC [9]: > 100 µg/mL | MIC [10]: > 100 µg/mL | MIC [11]: > 100 µg/mL | MIC [12]: > 100 µg/mL | MIC [13]: > 100 µg/mL | MIC [14]: > 100 µg/mL | MIC [15]: > 100 µg/mL | MIC [16]: > 100 µg/mL | MIC [17]: > 100 µg/mL | MIC [18]: > 100 µg/mL | MIC [19]: > 100 µg/mL | MIC [20]: > 100 µg/mL | inhibiting the growth of gram-positive bacteria (gram-positive bacteria): intense effects of inhibiting the growth | effect on gram-negative bacteria (gram-negative bacteria): no effect | Cells/plate (HeLa cell; 0.39 μg/ml): 14.35 × 10^5 | Cells/plate (HeLa cell; 1.56 μg/ml): 14.64 × 10^5 | Cells/plate (HeLa cell; 6.25 μg/ml): 13.91 × 10^5 | Cells/plate (HeLa cell; 25 μg/ml): 13.47 × 10^5 | Cells/plate (HeLa cell; 100 μg/ml): 2.78 × 10^5 | inhibition at 0.39 µg/mL (HeLa cell; Homo sapiens, HeLa, 0.39 μg/ml, 72 hours, read-out: Inhibition ratio): 3.58% | inhibition at 1.56 µg/mL (HeLa cell; Homo sapiens, HeLa, 1.56 μg/ml, 72 hours, read-out: Inhibition ratio): 1.26% | inhibition at 6.25 µg/mL (HeLa cell; Homo sapiens, HeLa, 6.25 μg/ml, 72 hours, read-out: Inhibition ratio): 6.94% | inhibition at 25 µg/mL (HeLa cell; Homo sapiens, HeLa, 25 μg/ml, 72 hours, read-out: Inhibition ratio): 10.2% | inhibition at 100 µg/mL (HeLa cell; Homo sapiens, HeLa, 100 μg/ml, 72 hours, read-out: Inhibition ratio): 93.4% | IC50 (HeLa cell; Homo sapiens, HeLa cell, 72 hours): ~47 µg/mL (≈ 187 µM) | antiviral activity (in words) [21]: exhibits an antiviral activity | acute toxicity compared with various known nucleoside antibiotics (Acute toxicity on mice; i.v.): lower than those of various known nucleoside antibiotics | LD50 (Acute toxicity on mice; mouse, in vivo, iv): ≥ 100 mg/kg | Solubility (Solubility in solvents; in dimethyl sulfoxide): soluble | Solubility (Solubility in solvents; in ethanol): soluble | Solubility (Solubility in solvents; in methanol): soluble | Solubility (Solubility in solvents; in other organic solvents such as propanol, acetone, ethyl acetate, ether and benzene): hardly or not soluble | Solubility (Solubility in solvents; in water): soluble
